The source of these data is patent US6387922B2, “Annulated azole derivatives useful as microbicidal agents” (Bayer Aktiengesellschaft, priority 1997, dated 2002).

Series [1] has as its system Plasmopara viticola. Kind of series: Plasmopara Test (grapevine)/protective. The format is in vivo. The following applies: grapevine young plants, protective spray, application rate 100 g/ha, evaluation 6 days after inoculation; 0% = as control, 100% = no infection. On the procedure: Plasmopara Test (grapevine)/protective
(§1) Solvent: 47 parts by weight of acetone
(§2) Emulsifier: 3 parts by weight of alkyl-aryl polyglycol ether
To produce a suitable preparation of the active compound, 1 part by weight of active compound is mixed with the stated amounts of solvent and emulsifier, and the concentrate is diluted with water to the desired concentration.
To test for protective activity, young plants are sprayed with a preparation of active compound at the stated application rate. After the spray coating has dried on, the plants are inoculated with an aqueous spore suspension of Plasmopara viticola and then remain in an incubation cabin at approximately 20° C. and 100% relative atmospheric humidity for 1 day. The plants are then placed in a greenhouse at approximately 21° C. and approximately 90% atmospheric humidity for 5 days. The plants are then moistened and placed in an incubation cabin for 1 day.
Evaluation is carried out 6 days after the inoculation. 0% means an efficacy which corresponds to that of the control, whereas an efficacy of 100% means that no infection is observed.

The subject of series [2] is Venturia inaequalis. Kind of series: Venturia Test (Apple)/protective. The format is in vivo. The note with it: apple young plants, protective spray, application rate 100 g/ha, evaluation 12 days after inoculation; 0% = as control, 100% = no infection. The procedure:
Venturia Test (Apple)/protective
as §1, §2
To produce a suitable preparation of active compound, 1 part by weight of active compound is mixed with the stated amounts of solvent and emulsifier, and the concentrate is diluted with water to the desired concentration.
To test for protective activity, young plants are sprayed with the preparation of active compound at the stated application rate. After the spray coating has dried on, the plants are inoculated with an aqueous conidia suspension of the causative organism of apple scab Venturia inaequalis and then remain in an incubation cabin at approximately 20° C. and 100% relative atmospheric humidity for 1 day.
The plants are then placed in a greenhouse at approximately 21° C. and a relative atmospheric humidity of approximately 90%.
Evaluation is carried out 12 days after the inoculation. 0% means an efficacy which corresponds to that of the control, whereas an efficacy of 100% means that no infection is observed.

In the case of `Cc1noc(C)c1S(=O)(=O)n1cnc2cnccc21` [Example 2, 1-(3,5-dimethyl-isoxazole-4-sulphonyl)-1H-imidazo[4,5-c]pyridine], the melting point was in the range of 130 to 135 °C. In series [1], this compound came in with an Efficacy in % of 90%. The same compound showed an Efficacy in % in series [2] of 95%.

`Cc1noc(C)c1S(=O)(=O)n1nnc2ccccc21` [1-(3,5-dimethyl-isoxazol-4-sulphonyl)-1H-benzotriazole, reference compound]: the values for the Efficacy in % in series [1] and in series [2] were 49% and 0%, respectively.

The term melting point denotes the temperature of the solid-liquid transition.
